According to publication PMC5940854, “Nitrothiophene carboxamides, a novel narrow spectrum antibacterial series: Mechanism of action and Efficacy” (Scientific Reports, 2018):
In brackets after ≈: the same amount, converted by molar mass.

Columns and labels:
ATCC25922 = assay: MIC on E. coli ATCC25922; type: cell-based; conditions: strain ATCC25922
Experimental: The inoculum used for all the experiments is derived from a single seed lot that is maintained as glycerol stocks at −80 °C and are sub cultured on LB plate for isolated colonies. Single colony of each strain is grown in M9 medium. All test compound stocks and dilutions are prepared in DMSO. Serial two-fold dilutions of compounds are prepared separately, with the concentrations ranging from 2 mg/mL to 0.015 mg/mL. To 150 µl (3–7 × 10^5 CFU/ml) of bacterial culture in 96 well microtitre plates, 3 μL compound from each of the dilutions is added to respective wells to obtain final concentrations ranging from 40 µg/mL to 0.3 µg/mL of the test compounds. Media control, culture control and appropriate reference drug controls are included. […] Growth is monitored by checking absorbance at 600 nm (A600). […] The samples from MIC and above concentrations are plated for MBC (Minimum Bactericidal Concentration). The samples are diluted 1:10 and plated on LB agar plates. […] The killing kinetics is determined by enumerating survivors at various time points following compound exposure. E. coli cells (~10^7 CFU/ml; A600 of 0.1) are treated with various concentrations (40 µg/mL to 0.3 µg/mL) of compounds in a 96-well microtitre plate. At various time intervals (0 to 8 h), 30 μl volumes of treated cultures are serially diluted and plated on LB agar plates. […] Data is expressed as the log10 CFU for each drug treatment.

[1] = tested on: E. coli clinical isolates; assay: MIC on panel of E. coli clinical isolates; type: cell-based

Work on `CNC(C)C1CCC(N)C(OC2C(N)CC(N)C(OC3OCC(C)(O)C(NC)C3O)C2O)O1` (centres unmarked) [gentamicin, reference compound] yielded an MIC (ATCC25922) of 2 µg/mL (≈ 4.19 µM), an MIC50 ([1]; Escherichia coli, 75 E.coli clinical isolates, 50% clinical isolates) of 16 µg/mL (≈ 33.5 µM) and an MIC90 ([1]; Escherichia coli, 75 E.coli clinical isolates, 90% clinical isolates) of over 64 µg/mL. It also gave an MIC ([1]; strain SEC001) of over 64 µg/mL, an MIC ([1]; strain SEC002) of 4 µg/mL (≈ 8.38 µM) and an MIC ([1]; strain SEC003) of over 64 µg/mL. For the same molecule, the MIC ([1]; strain SEC004) was 4 µg/mL (≈ 8.38 µM), the MIC ([1]; strain SEC005) was over 64 µg/mL and the MIC ([1]; strain SEC006) was 4 µg/mL (≈ 8.38 µM). The MIC ([1]; strain SEC007) was over 64 µg/mL, the MIC ([1]; strain SEC008) was over 64 µg/mL and the MIC ([1]; strain SEC011) was over 64 µg/mL. The MIC ([1]; strain SEC012) was 4 µg/mL (≈ 8.38 µM), the MIC ([1]; strain SEC013) was over 64 µg/mL and the MIC ([1]; strain SEC014) was over 64 µg/mL. For the same molecule, the MIC ([1]; strain SEC015) was over 64 µg/mL, the MIC ([1]; strain SEC016) was 4 µg/mL (≈ 8.38 µM) and the MIC ([1]; strain SEC017) was over 64 µg/mL. The MIC ([1]; strain SEC018) was 0.5 µg/mL (≈ 1.05 µM), the MIC ([1]; strain SEC019) was over 64 µg/mL and the MIC ([1]; strain SEC020) was 2 µg/mL (≈ 4.19 µM). It also gave an MIC ([1]; strain SEC021) of over 64 µg/mL, an MIC ([1]; strain SEC022) of over 64 µg/mL and an MIC ([1]; strain SEC023) of 4 µg/mL (≈ 8.38 µM). The MIC ([1]; strain SEC024) was over 64 µg/mL, the MIC ([1]; strain SEC025) was over 64 µg/mL and the MIC ([1]; strain SEC026) was 2 µg/mL (≈ 4.19 µM). It also gave an MIC ([1]; strain SEC028) of 2 µg/mL (≈ 4.19 µM), an MIC ([1]; strain SEC029) of 4 µg/mL (≈ 8.38 µM) and an MIC ([1]; strain SEC031) of over 64 µg/mL. It also gave an MIC ([1]; strain SEC032) of 4 µg/mL (≈ 8.38 µM), an MIC ([1]; strain SEC033) of over 64 µg/mL and an MIC ([1]; strain SEC034) of 2 µg/mL (≈ 4.19 µM). For the same molecule, the MIC ([1]; strain SEC035) was over 64 µg/mL, the MIC ([1]; strain SEC036) was 4 µg/mL (≈ 8.38 µM) and the MIC ([1]; strain SEC037) was 4 µg/mL (≈ 8.38 µM). For the same molecule, the MIC ([1]; strain SEC038) was 4 µg/mL (≈ 8.38 µM), the MIC ([1]; strain SEC039) was 2 µg/mL (≈ 4.19 µM) and the MIC ([1]; strain SEC040) was 32 µg/mL (≈ 67 µM). The MIC ([1]; strain SEC041) was 4 µg/mL (≈ 8.38 µM), the MIC ([1]; strain SEC042) was over 64 µg/mL and the MIC ([1]; strain SEC043) was over 64 µg/mL. The MIC ([1]; strain SEC044) was over 64 µg/mL, the MIC ([1]; strain SEC045) was 4 µg/mL (≈ 8.38 µM) and the MIC ([1]; strain SEC046) was 4 µg/mL (≈ 8.38 µM). The MIC ([1]; strain SEC047) was over 64 µg/mL, the MIC ([1]; strain SEC048) was 4 µg/mL (≈ 8.38 µM) and the MIC ([1]; strain SEC049) was 4 µg/mL (≈ 8.38 µM). For the same molecule, the MIC ([1]; strain SEC050) was over 64 µg/mL, the MIC ([1]; strain SEC051) was 2 µg/mL (≈ 4.19 µM) and the MIC ([1]; strain SEC052) was 2 µg/mL (≈ 4.19 µM). For the same molecule, the MIC ([1]; strain SEC053) was over 64 µg/mL, the MIC ([1]; strain SEC054) was 8 µg/mL (≈ 16.8 µM) and the MIC ([1]; strain SEC055) was 2 µg/mL (≈ 4.19 µM). The MIC ([1]; strain SEC057) was 4 µg/mL (≈ 8.38 µM), the MIC ([1]; strain SEC058) was 4 µg/mL (≈ 8.38 µM) and the MIC ([1]; strain SEC059) was 2 µg/mL (≈ 4.19 µM). The MIC ([1]; strain SEC060) was 32 µg/mL (≈ 67 µM), the MIC ([1]; strain SEC061) was over 64 µg/mL and the MIC ([1]; strain SEC062) was 8 µg/mL (≈ 16.8 µM). For the same molecule, the MIC ([1]; strain SEC063) was 0.5 µg/mL (≈ 1.05 µM), the MIC ([1]; strain SEC064) was over 64 µg/mL and the MIC ([1]; strain SEC065) was over 64 µg/mL. For the same molecule, the MIC ([1]; strain SEC067) was 4 µg/mL (≈ 8.38 µM), the MIC ([1]; strain SEC068) was over 64 µg/mL and the MIC ([1]; strain SEC069) was over 64 µg/mL. The MIC ([1]; strain SEC070) was over 64 µg/mL, the MIC ([1]; strain SEC071) was 32 µg/mL (≈ 67 µM) and the MIC ([1]; strain SEC072) was over 64 µg/mL. For the same molecule, the MIC ([1]; strain SEC073) was over 64 µg/mL, the MIC ([1]; strain SEC074) was over 64 µg/mL and the MIC ([1]; strain SEC075) was over 64 µg/mL. For the same molecule, the MIC ([1]; strain SEC076) was 4 µg/mL (≈ 8.38 µM), the MIC ([1]; strain SEC077) was 16 µg/mL (≈ 33.5 µM) and the MIC ([1]; strain SEC078) was over 64 µg/mL. The MIC ([1]; strain SEC079) was over 64 µg/mL and the MIC ([1]; strain SEC080) was 4 µg/mL (≈ 8.38 µM).
